Laboratory results taken from paper PMC7111787 (Virology, 2006).

Target: T1, MHV E protein (Murine hepatitis virus strain A59, UniProt P0C2R0)
T1 sequence (P0C2R0 1-83): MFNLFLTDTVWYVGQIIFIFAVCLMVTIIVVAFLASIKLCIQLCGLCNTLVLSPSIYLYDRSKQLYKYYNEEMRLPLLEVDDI
Test: planar lipid bilayer current recording, dose titration
Format: biochemical

EC50: 10.2 µM
SMILES: N=C(N)NC(=O)c1nc(Cl)c(N2CCCCCC2)nc1N [HMA, Hexamethylene amiloride]
